Results: patent US20040224313A1, “Polymorphisms in the human cyp2b6 gene and their use in diagnostic and therapeutic applications” (priority 2000, published 2004)
Residue numbers refer to the chain shown, from its start.

Columns and labels:
CYP2B6 [1] = target: T1, CYP2B6 (Homo sapiens, UniProt P20813); details: human liver microsomes, homozygous wild-type (Wt) group
T1 sequence (P20813 1-491): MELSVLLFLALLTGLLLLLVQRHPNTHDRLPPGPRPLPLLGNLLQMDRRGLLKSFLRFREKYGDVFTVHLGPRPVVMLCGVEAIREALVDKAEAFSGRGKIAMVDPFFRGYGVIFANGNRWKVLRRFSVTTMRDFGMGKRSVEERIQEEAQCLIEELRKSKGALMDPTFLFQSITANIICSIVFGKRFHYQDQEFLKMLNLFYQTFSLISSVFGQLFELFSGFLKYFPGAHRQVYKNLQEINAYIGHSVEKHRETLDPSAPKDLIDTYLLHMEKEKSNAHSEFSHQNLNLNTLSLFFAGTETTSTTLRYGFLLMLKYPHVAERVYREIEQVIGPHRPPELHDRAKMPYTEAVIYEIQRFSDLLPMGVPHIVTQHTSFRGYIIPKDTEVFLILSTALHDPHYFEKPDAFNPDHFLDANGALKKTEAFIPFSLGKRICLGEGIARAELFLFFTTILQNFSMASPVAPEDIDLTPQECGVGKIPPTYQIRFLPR
Protocol: (§1) FIG. 4: Analysis of CYP2B6 protein expression (A) and enzymatic function (B). CYP2B6 protein was determined by immunoblotting and the S-mephenytoin N-demethylation to Nirvanol was measured in 92 liver microsome samples. The 5 nonsynonymous CYP2B6 mutations were determined in DNA from the same 92 individuals. Wt indicates the group of 30 individuals with homozygous wild-type genotype; 487 R/C and 487 C/C show the results for individuals heterozygous or homozygous for the exon 9 mutation, respectively. All other mutant genotypes are collectively shown. The average expression and activity of each group is shown as horizontal line. Statistical significance was evaluated by the t-test in comparison to the Wt group: * P<0.05; ** P<0.01.
(§2) The functional significance of the mutations in the CYP2B6 gene (Table 2) was investigated by analyzing expression and enzymatic activity of CYP2B6 in a large human liver bank. A specific monoclonal antibody, MAB-2B6 (Gentest Corp., Woburn, Mass., USA) was used to immunoquantitate microsomal CYP2B6. S-mephenytoin N-demethylation to Nirvanol was measured as a rather CYP2B6-specific pathway. The five nonsynonymous mutations were determined in all samples.

CYP2B6 [2] = target: T2, CYP2B6 (Homo sapiens, UniProt P20813, R487C); details: human liver microsomes, homozygous carriers of R487C (C1459T)
T2 sequence (P20813 1-491 R487C): T1 sequence (P20813 1-491) with R487C
Protocol: as §1, §2

CYP2B6 [3] = details: human liver microsomes, heterozygous carriers of R487C (C1459T)
Protocol: as §1, §2

CC[C@@]1(c2ccccc2)NC(=O)N(C)C1=O [S-mephenytoin]
mean enzyme activity, S-mephenytoin N-demethylation (CYP2B6 [1]): 49.2±49.4 pmoles of nirvanol formed/min*mg | mean enzyme activity, S-mephenytoin N-demethylation (CYP2B6 [2]): 22.2±8.4 pmoles of nirvanol formed/min*mg | mean enzyme activity, S-mephenytoin N-demethylation (CYP2B6 [3]): 25.9±15.2 pmoles of nirvanol formed/min*mg
